Here are results for 15 compounds from patent US20190119251A1, “AMIDE-SUBSTITUTED ARYLTRIAZOLE DERIVATIVES AND USES THEREOF” (BAYER PHARMA AKTIENGESELLSCHAFT, priority 2016, published 2019).

SMILES strings stand for the structures.

The target in test [1] is T1, human V1a receptor (Homo sapiens, UniProt P37288).
T1 construct: expressed in transfected cells; host or cells: CHO K1 (Chinese hamster ovary), also stably transfected with modified aequorin
The test is described as follows: Cellular in vitro assay for determining vasopressin receptor activity (V1a cell line, aequorin luminescence). It counts as cell-based. To be noted: for IC50: CHO cell line transfected with the human V1a receptor, agonist [Arg8]-vasopressin at EC50 concentration, read-out: IC50 hV1a; for ratio IC50 hV2/hV1a: ratio of cellular IC50 values, human V2 over human V1a. The method, then:
(§1) B-1. Cellular In Vitro Assay for Determining Vasopressin Receptor Activity
(§2) The identification of agonists and antagonists of the V 1 a and V2 vasopressin receptors from humans, rats and dogs as well as the quantification of the activity of the compounds of the invention is carried out using recombinant cell lines. These cell lines originally derive from a hamster's ovary epithelial cell (Chinese Hamster Ovary, CHO K1, ATCC: American Type Culture Collection, Manassas, Va. 20108, USA). The test cell lines constitutively express the human, rat or dog
(§3) V1 a or V2 receptors. In case of the Gag-coupled V 1 a receptors, cells are also stably transfected with a modified form of the calcium-sensitive photoproteins aequorin (human and rat V1a) or obelin (dog V 1 a), which, after reconstitution with the cofactor coelenterazine, emit light when there are increases in free calcium concentrations [Rizzuto R, Simpson A W, Brini M, Pozzan T, Nature 358, 325-327 (1992); Illarionov B A, Bondar V S, Illarionova V A, Vysotski E S, Gene 153 (2), 273-274 (1995)]. The resulting vasopressin receptor cells react to stimulation of the recombinantly expressed V 1 a receptors by intracellular release of calcium ions, which can be quantified by the resulting photoprotein luminescence. The Gs-coupled V2 receptors are stably transfected into cell lines expressing the gene for firefly luciferase under control of a CRE-responsible promoter. Activation of V2 receptors induces the activation of the CRE-responsive promoter via cAMP increase, thereby inducing the expression of firefly luciferase. The light emitted by photoproteins of V1a cell lines as well as the light emitted by firefly luciferase of V2 cell lines corresponds to the activation or inhibition of the respective vasopressin receptor. The bioluminescence of the cell lines is detected using a suitable luminometer [Milligan G, Marshall F, Rees S, Trends in Pharmacological Sciences 17, 235-237 (1996)].
Vasopressin V1a Receptor Cell Lines:
On the day before the assay, the cells are plated out in culture medium (DMEM/F12, 2% FCS, 2 mM glutamine, 10 mM HEPES, 5 μg/ml coelenterazine) in 384-well microtiter plates and kept in a cell incubator (96% humidity, 5% v/v CO2, 37° C.). On the day of the assay, test compounds in various concentrations are placed for 10 minutes in the wells of the microtiter plate before the agonist [Arg^8]-vasopressin at EC50 concentration is added. The resulting light signal is measured immediately in a luminometer.
(§4) Table 1A below lists individual IC50 values for the compounds of the invention (including racemic mixtures as well as separated enantiomers) that were obtained from cell lines transfected with the human V1a or V2 receptor: […]

The target of test [2] is T2, human V2 receptor (Homo sapiens, UniProt P30518).
T2 construct: expressed in transfected cells; host or cells: CHO K1 (Chinese hamster ovary) expressing firefly luciferase under a CRE-responsive promoter
In words: Cellular in vitro assay for determining vasopressin receptor activity (V2 cell line, CRE-luciferase). It counts as cell-based. To be noted: CHO cell line transfected with the human V2 receptor; agonist [Arg8]-vasopressin at EC50 concentration; 3 hours incubation; read-out: IC50 hV2. The method, then:
as §1, §2, §3
Vasopressin V2 Receptor Cell Lines:
On the day before the assay, the cells are plated out in culture medium (DMEM/F12, 2% FCS, 2 mM glutamine, 10 mM HEPES) in 384-well microtiter plates and kept in a cell incubator (96% humidity, 5% v/v CO2, 37° C.). On the day of the assay, test compounds in various concentrations and the agonist [Arg^8]-vasopressin at EC50 concentration are added together to the wells, and plates are incubated for 3 hours in a cell incubator. Upon addition of the cell lysis reagent Triton™ and the substrate luciferin, luminescence of firefly luciferase is measured in a luminometer.
as §4

T1 sequence (P37288 whole entry): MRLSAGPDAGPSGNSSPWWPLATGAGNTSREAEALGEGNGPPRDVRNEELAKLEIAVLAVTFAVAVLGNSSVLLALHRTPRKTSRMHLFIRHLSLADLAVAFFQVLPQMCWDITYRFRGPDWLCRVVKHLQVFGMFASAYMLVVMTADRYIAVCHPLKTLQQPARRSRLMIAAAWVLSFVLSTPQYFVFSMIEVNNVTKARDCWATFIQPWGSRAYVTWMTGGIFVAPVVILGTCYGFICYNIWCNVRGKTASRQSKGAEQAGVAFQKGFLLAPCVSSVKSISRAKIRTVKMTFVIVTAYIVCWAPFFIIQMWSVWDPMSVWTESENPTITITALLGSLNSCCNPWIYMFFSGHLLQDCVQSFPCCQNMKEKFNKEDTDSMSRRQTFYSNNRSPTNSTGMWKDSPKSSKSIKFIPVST
T2 sequence (P30518 whole entry): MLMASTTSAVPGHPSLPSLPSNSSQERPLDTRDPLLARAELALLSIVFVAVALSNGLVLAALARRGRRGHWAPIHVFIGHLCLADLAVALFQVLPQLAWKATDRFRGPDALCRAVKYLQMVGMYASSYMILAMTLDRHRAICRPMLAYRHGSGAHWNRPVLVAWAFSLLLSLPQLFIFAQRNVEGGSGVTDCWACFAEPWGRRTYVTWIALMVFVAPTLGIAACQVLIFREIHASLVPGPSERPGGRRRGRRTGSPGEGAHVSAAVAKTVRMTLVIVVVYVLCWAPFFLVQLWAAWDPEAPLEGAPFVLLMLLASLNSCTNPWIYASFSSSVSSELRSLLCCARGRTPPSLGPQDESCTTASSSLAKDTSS

The IC50 is the midpoint of a concentration-inhibition curve. For `Cc1ccnc(Cl)c1-n1nc(Cn2nc(-c3ccc(Cl)cc3)n(C[C@H](O)C(F)(F)F)c2=O)nc1C(N)=O` [Example 12, 1-(2-Chloro-4-methylpyridin-3-yl)-3-({3-(4-chlorophenyl)-5-oxo-4-[(2 S)-3,3,3-trifluoro-2-hydroxypropyl]-4,5-dihydro-1H-1,2,4-triazol-1-yl}methyl)-1H-1,2,4-triazole-5-carboxamide], the IC50 in test [1] stood at 125 nM; in test [2], 150 nM. Also, the “ratio IC50 hV2/hV1a” value in test [1] was found to be 1.2.
For `COc1ccccc1-n1nc(Cn2nc(-c3ccc(Cl)cc3)n(C[C@H](O)C(F)(F)F)c2=O)nc1C(N)=O` [Example 34, 3-({3-(4-Chlorophenyl)-5-oxo-4-[(2S)-3,3,3-trifluoro-2-hydroxypropyl]-4,5-dihydro-1H-1,2,4-triazol-1-yl}methyl)-1-(2-methoxyphenyl)-1H-1,2,4-triazole-5-carboxamide], in that order: 1.11 nM, 7.63 nM and 6.9.
On to `NC(=O)c1ccncc1-n1nc(Cn2nc(-c3ccc(Cl)cc3)n(C[C@H](O)C(F)(F)F)c2=O)nc1C(N)=O` [Example 14, 3-[5-Carbamoyl-3-({3-(4-chlorophenyl)-5-oxo-4-[(2S)-3,3,3-trifluoro-2-hydroxypropyl]-4,5-dihydro-1H-1,2,4-triazol-1-yl}methyl)-1H-1,2,4-triazol-1-yl]pyridine-4-carboxamide], for which, in test [1], the IC50 stood at 152 nM and the “ratio IC50 hV2/hV1a” value was 4.2. Further, the IC50 in test [2] worked out at 638 nM.
As for `Cc1cccnc1-n1nc(Cn2nc(-c3ccc(Cl)cc3)n(C[C@H](O)C(F)(F)F)c2=O)nc1C(N)=O` [Example 2, 3-({3-(4-Chlorophenyl)-5-oxo-4-[(2S)-3,3,3-trifluoro-2-hydroxypropyl]-4,5-dihydro-1H-1,2,4-triazol-1-yl}methyl)-1-(3-methylpyridin-2-yl)-1H-1,2,4-triazole-5-carboxamide], in test [1], the IC50 is 5.15 nM and the “ratio IC50 hV2/hV1a” value stood at 4.5. Besides, the IC50 in test [2] turned out to be 23.2 nM.
With `NC(=O)c1nc(Cn2nc(-c3ccc(Cl)cc3)n(C[C@H](O)C(F)(F)F)c2=O)nn1-c1cccc(Cl)c1` [Example 33, 1-(3-Chlorophenyl)-3-({3-(4-chlorophenyl)-5-oxo-4-[(2S)-3,3,3-trifluoro-2-hydroxypropyl]-4,5-dihydro-1H-1,2,4-triazol-1-yl}methyl)-1H-1,2,4-triazole-5-carboxamide], in test [1], the IC50 was found to be 24 nM and the “ratio IC50 hV2/hV1a” value stood at 0.2. Moreover, the IC50 in test [2] came to 4.55 nM.
The matching figures for `Cc1cccc(C)c1-n1nc(Cn2nc(-c3ccc(Cl)cc3)n(C[C@H](O)C(F)(F)F)c2=O)nc1C(N)=O` [Example 23, 3-({3-(4-Chlorophenyl)-5-oxo-4-[(2S)-3,3,3-trifluoro-2-hydroxypropyl]-4,5-dihydro-1H-1,2,4-triazol-1-yl}methyl)-1-(2,6-dimethylphenyl)-1H-1,2,4-triazole-5-carboxamide]: 2.45 nM, 1.0 and 2.53 nM.
The matching figures for `NC(=O)c1nc(Cn2nc(-c3ccc(Cl)cc3)n(C[C@H](O)C(F)(F)F)c2=O)nn1-c1ccccc1OC(F)F` [Example 27, 3-({3-(4-Chlorophenyl)-5-oxo-4-[(2S)-3,3,3-trifluoro-2-hydroxypropyl]-4,5-dihydro-1H-1,2,4-triazol-1-yl}methyl)-1-[2-(difluoromethoxy)phenyl]-1H-1,2,4-triazole-5-carboxamide]: 4.5 nM, 9.3 and 41.7 nM.
For `NC(=O)c1nc(Cn2nc(-c3ccc(Cl)cc3)n(C[C@H](O)C(F)(F)F)c2=O)nn1-c1ccncc1F` [Example 8, 3-({3-(4-Chlorophenyl)-5-oxo-4-[(2S)-3,3,3-trifluoro-2-hydroxypropyl]-4,5-dihydro-1H-1,2,4-triazol-1-yl}methyl)-1-(3-fluoropyridin-4-yl)-1H-1,2,4-triazole-5-carboxamide], in that order: 70 nM, 3.5 and 248 nM.
With `NC(=O)c1nc(Cn2nc(-c3ccc(Cl)cc3)n(C[C@@H](O)C(F)(F)F)c2=O)nn1-c1ccccc1Cl` [Example 36, 1-(2-Chlorophenyl)-3-({3-(4-chlorophenyl)-5-oxo-4-[(2R)-3,3,3-trifluoro-2-hydroxypropyl]-4,5-dihydro-1H-1,2,4-triazol-1-yl}methyl)-1H-1,2,4-triazole-5-carboxamide], the IC50 in test [1] came to 3.8 nM; in test [2], 87.5 nM. Moreover, the “ratio IC50 hV2/hV1a” value in test [1] is reported as 23.0.
For `NC(=O)c1nc(Cn2nc(-c3ccc(Cl)cc3)n(C[C@H](O)C(F)(F)F)c2=O)nn1-c1ccccn1` [Example 11, 3-({3-(4-Chlorophenyl)-5-oxo-4-[(2S)-3,3,3-trifluoro-2-hydroxypropyl]-4,5-dihydro-1H-1,2,4-triazol-1-yl}methyl)-1-(pyridin-2-yl)-1H-1,2,4-triazole-5-carboxamide], in that order: 115 nM, 150 nM and 1.3.
For `Cc1cnccc1-n1nc(Cn2nc(-c3ccc(Cl)cc3)n(C[C@H](O)C(F)(F)F)c2=O)nc1C(N)=O` [Example 3, 3-({3-(4-Chlorophenyl)-5-oxo-4-[(2S)-3,3,3-trifluoro-2-hydroxypropyl]-4,5-dihydro-1H-1,2,4-triazol-1-yl}methyl)-1-(3-methylpyridin-4-yl)-1H-1,2,4-triazole-5-carboxamide], in that order: 6.7 nM, 94 nM and 14.0.
In the case of `CCc1ccccc1-n1nc(Cn2nc(-c3ccc(Cl)cc3)n(C[C@H](O)C(F)(F)F)c2=O)nc1C(N)=O` [Example 20, 3-({3-(4-Chlorophenyl)-5-oxo-4-[(2S)-3,3,3-trifluoro-2-hydroxypropyl]-4,5-dihydro-1H-1,2,4-triazol-1-yl}methyl)-1-(2-ethylphenyl)-1H-1,2,4-triazole-5-carboxamide], in test [1], the IC50 stood at 0.75 nM and the “ratio IC50 hV2/hV1a” value came to 3.7. Also, the IC50 in test [2] came to 2.73 nM.
In the case of `COC(=O)c1cccnc1-n1nc(Cn2nc(-c3ccc(Cl)cc3)n(C[C@H](O)C(F)(F)F)c2=O)nc1C(N)=O` [Example 7, Methyl 2-[5-carbamoyl-3-({3-(4-chlorophenyl)-5-oxo-4-[(2S)-3,3,3-trifluoro-2-hydroxypropyl]-4,5-dihydro-1H-1,2,4-triazol-1-yl}methyl)-1H-1,2,4-triazol-1-yl]pyridine-3-carboxylate], in test [1], the IC50 worked out at 54 nM and the “ratio IC50 hV2/hV1a” value was found to be 6.1. Besides, the IC50 in test [2] amounted to 330 nM.
`Cc1ccccc1-n1nc(Cn2nc(-c3ccc(Cl)cc3)n(C[C@H](O)C(F)(F)F)c2=O)nc1C(N)=O` [Example 19, 3-({3-(4-Chlorophenyl)-5-oxo-4-[(2S)-3,3,3-trifluoro-2-hydroxypropyl]-4,5-dihydro-1H-1,2,4-triazol-1-yl}methyl)-1-(2-methylphenyl)-1H-1,2,4-triazole-5-carboxamide]: in test [1], the IC50 stood at 0.65 nM and the “ratio IC50 hV2/hV1a” value came to 7.5. For the same compound, the IC50 in test [2] was found to be 4.91 nM.
For `NC(=O)c1nc(Cn2nc(-c3ccc(Cl)cc3)n(C[C@H](O)C(F)(F)F)c2=O)nn1-c1ncccc1F` [Example 5, 3-({3-(4-Chlorophenyl)-5-oxo-4-[(2S)-3,3,3-trifluoro-2-hydroxypropyl]-4,5-dihydro-1H-1,2,4-triazol-1-yl}methyl)-1-(3-fluoropyridin-2-yl)-1H-1,2,4-triazole-5-carboxamide], in test [1], the IC50 was 17.5 nM and the “ratio IC50 hV2/hV1a” value turned out to be 2.6. For the same compound, the IC50 in test [2] was 46 nM.
